US9422226B2 (Biogen MA Inc., priority 2011, dated 2016)
Counter-ions that a name gives are not always drawn. Like-named read-outs stand apart in the source and are kept apart here. Values belong to the compound of their own block, whether it stands above or below them.

Key:
[1] = Methanolysis of dimethyl sulfate, 1H NMR kinetics; format: physicochemical; details: 65° C., 1.5 mole % DMS in dry methanol
Method: Solutions of 1.5 mole % DMS and methanol were heated in a sealed tube to 35° C. and the time-dependent NMR spectra were collected for these mixtures. […] Use of NMR data helped confirm the reaction mechanism proposed in Scheme 2.
The reaction proceeded more slowly at 35° C. but clearly confirms the formation of dimethyl ether (DME). The gradual downfield shift of the exchangeable OH resonance (4.8 ppm) supports the generation of a strong acid i.e., MMS (Scheme 5). Another set of duplicate experiments were performed under the reaction conditions at 65° C. (again spiking 1.5 mole % DMS into dry methanol with <0.01% water and no sulfuric acid) and monitoring the reaction for 60 minutes. This reaction was considered to be essentially irreversible under nominal plant process conditions since the reaction vessels are not pressurized and the resultant dimethyl ether would bubble out of solution.

[2] = Hydrolysis of dimethyl sulfate, water spiking, 1H NMR kinetics; format: physicochemical; details: 65° C., water 10.5, 14.0, 17.7 mole % in DMS-methanol
Method: The hydrolysis rate of dimethyl sulfate was determined by spiking known amounts of water into a mixture of DMS and methanol. Water was spiked into DMS-methanol solutions at three different levels—10.5, 14.0, and 17.7 mole % equivalents. The reactions were monitored for 60 minutes at 65° C. and the DMS peak integrals obtained.
The rate constant for the hydrolysis of DMS (k−2) was derived by fitting all the data to a DynoChem model that used the time-dependant peak integral data.

serum proteins = details: cited from earlier work
[3] = Mean particle size before and after jet milling; format: physicochemical
Description: These particles were milled to produce particles of a suitable size for consistent handling and uniformity for drug product processing. The target specification for particle size is ≧97% of the particles <250 μm. The dimethyl fumarate drug substance was milled consistently to meet this specification using a jet mill. […] It is evident that the milling operation is capable of producing a drug substance of suitable quality.

[4] = Lab crystallization experiments with different cooling rates, mean particle size; format: physicochemical; details: isolated from the reaction mixture prior to milling
Method: In the current process the mixture was cooled from reaction temperature 65° C. to the end temperature 20-25° C. in about 8 hours, stirred for 1-2 hours, and filtered to isolate the product.
Table 2 highlights results from laboratory crystallization experiments with cooling rates chosen within manufacturing equipment capabilities.

[5] = Particle size of dimethyl fumarate by laser diffraction during and after drying; format: physicochemical
Method: The particle sizes reported here are based on a measured distribution. In one embodiment, the particle sizes are measured using a Laser Diffraction technique that correlates light scattering to particle volume on which “effective length or effective diameter” is calculated. The distribution is based on a measurement of thousands of particles. Particles samples can be in dry form or in slurry. In one embodiment, the instrument used to determine particle size/distribution is a Beckman Coulter LS230 or a Malvern Mastersizer.
The effect of temperature, pressure, and drying time on particle size was also investigated. […] Development studies examined the extent of sublimation under the drying conditions employed in the manufacturing plant. The first 3 entries in Table 5 are lab samples collected after 7, 24, and 48 hours drying time. The result from the three lab samples confirms that drying has no effects on the particle size. The particle size of lab samples were also compared to two representative plant samples which were dried for 48 hours and 72 hours. There is no change in particle size during drying.

[6] = system: Ehrlich solid tumor cells; details: in mice; cited from earlier work
[7] = cited from earlier work; for rate constant for the hydrolysis of MMS, extrapolated: at 25° C.
[8] = Formation of monomethyl sulfate from sulfuric acid and methanol, 1H NMR kinetics; format: physicochemical; details: 65° C., dry methanol and concentrated sulfuric acid; ±7% RSD
Method: All ^1H NMR spectra were obtained in and referenced against DMSO-d6 at 2.5 ppm using a Varian 500 MHz NMR. Concentrated sulfuric acid, fumaric acid, and dimethyl fumarate were obtained from the Sigma-Aldrich Chemical Company. Authentic standards of MMS (Na salt) and DMS were also obtained from Sigma-Aldrich. For spiking identification purposes, an authentic sample of MMS was prepared by passing a methanolic solution of the commercially available sodium salt through Amberlite FPA 22 resin (H form, 10 molar equivalents), and concentrating to an oil on a flash evaporator.
All small scale reactions performed in the study were magnetically stirred and carried out using an insulated oil bath maintained at 65 deg±1° C. […]
Sampling of reactions involved removal of a minimum of 150-400 μL of reaction solution, addition to DMSO-d6 (lock solvent) as required to make up a 650 μL solution in each NMR tube. Samples were chilled in an ice/water bath, and analyzed within 5-10 minutes of their preparation. […]
Dry methanol (<0.01% water) was mixed with concentrated dry sulfuric acid and heated to 65° C. […] Equilibrium was reached within 1 hour, resulting in an essentially quantitative conversion of sulfuric acid to monomethyl sulfate. […] The second-order forward rate constant (k1) for the formation of MMS at 65° C. was determined to be 6.4×10^−5 L/mol-sec with a confidence interval of ±7% RSD.

[9] = Hydrolysis of monomethyl sulfate, water spiking, 1H NMR; format: physicochemical
Method: The rate constant of this reaction was measured by spiking water into solutions containing MMS (1.5 mole %) and monitoring the heated, sealed, vessel by ^1H NMR for 45 hours. Water was spiked into the matrix at two different levels—6 mole % and 12 mole %. […] In order to develop the larger model, the MMS equilibrium constant K (k1/k−1) was assigned a value of 999:1 in favor of the forward reaction, thus conservatively defining k−1 as 6.4×10^−8 L/mol-sec.

[10] = high doses; cited from earlier work

Structure (SMILES): COS(=O)(=O)OC [DMS, dimethyl sulfate]
- rate constant for the methanolysis of DMS (k3) [1]: 4.1e-05 M⁻¹ s⁻¹
- rate constant for the hydrolysis of DMS (k−2) [2]: 0.00023 M⁻¹ s⁻¹

Structure (SMILES): COC(=O)/C=C/C(=O)O [methyl hydrogen fumarate]
- bound by serum proteins (serum proteins): 30%

- Mean Particle Size ([3]; after jet milling): 20-40 μm
- Mean Particle Size ([3]; isolated from the dryer, before milling): 550-650 μm
- Mean Particle Size ([4]; cooling rate 5° C./h): 475 μm
- Mean Particle Size ([4]; cooling rate 8° C./h): 448 μm
- Mean Particle Size ([4]; cooling rate 15° C./h): 475 μm
- Particle Size by Laser Diffraction, D10 ([5]; drying time 7 h (lab)): 328 μm
- Particle Size by Laser Diffraction, D50 ([5]; drying time 7 h (lab)): 566 μm
- Particle Size by Laser Diffraction, D90 ([5]; drying time 7 h (lab)): 850 μm
- Particle Size by Laser Diffraction, D97 ([5]; drying time 7 h (lab)): 987 μm
- Particle Size by Laser Diffraction, Mean ([5]; drying time 7 h (lab)): 524 μm
- Particle Size by Laser Diffraction, D10 ([5]; drying time 24 h (lab)): 323 μm
- Particle Size by Laser Diffraction, D50 ([5]; drying time 24 h (lab)): 562 μm
- Particle Size by Laser Diffraction, D90 ([5]; drying time 24 h (lab)): 843 μm
- Particle Size by Laser Diffraction, D97 ([5]; drying time 24 h (lab)): 979 μm
- Particle Size by Laser Diffraction, Mean ([5]; drying time 24 h (lab)): 521 μm
- Particle Size by Laser Diffraction, D10 ([5]; drying time 48 h (lab)): 340 μm
- Particle Size by Laser Diffraction, D50 ([5]; drying time 48 h (lab)): 567 μm
- Particle Size by Laser Diffraction, D90 ([5]; drying time 48 h (lab)): 845 μm
- Particle Size by Laser Diffraction, D97 ([5]; drying time 48 h (lab)): 980 μm
- Particle Size by Laser Diffraction, Mean ([5]; drying time 48 h (lab)): 535 μm
- Particle Size by Laser Diffraction, D10 ([5]; drying time 48 h (plant)): 332 μm
- Particle Size by Laser Diffraction, D50 ([5]; drying time 48 h (plant)): 561 μm
- Particle Size by Laser Diffraction, D90 ([5]; drying time 48 h (plant)): 828 μm
- Particle Size by Laser Diffraction, D97 ([5]; drying time 48 h (plant)): 956 μm
- Particle Size by Laser Diffraction, Mean ([5]; drying time 48 h (plant)): 536 μm
- Particle Size by Laser Diffraction, D10 ([5]; drying time 72 h (plant)): 327 μm
- Particle Size by Laser Diffraction, D50 ([5]; drying time 72 h (plant)): 562 μm
- Particle Size by Laser Diffraction, D90 ([5]; drying time 72 h (plant)): 834 μm
- Particle Size by Laser Diffraction, D97 ([5]; drying time 72 h (plant)): 963 μm
- Particle Size by Laser Diffraction, Mean ([5]; drying time 72 h (plant)): 524 μm
Structure (SMILES): COC(=O)/C=C/C(=O)OC [dimethyl fumarate]

Structure (SMILES): O=C(O)/C=C/C(=O)O [fumaric acid]
- growth of Ehrlich solid tumor cells [6]: impede the growth

Structure (SMILES): COS(=O)(=O)O [MMS, monomethyl sulfate]
- equilibrium constant for the hydrolysis of monomethyl sulfate ([7]; T=100° C. to 150° C., sulfuric acid 1-4 M): 0.027 M⁻¹
- rate constant for the hydrolysis of MMS, extrapolated ([7]; 1M HCl, T=40° C. to 100° C.): 1.7e-08 M⁻¹ s⁻¹
- rate constant for the hydrolysis of MMS, extrapolated ([7]; pH=3 to 10, T=100° C. to 190° C.): 2.2e-11 M⁻¹ s⁻¹
- second-order forward rate constant (k1) for the formation of MMS [8]: 6.4e-05 M⁻¹ s⁻¹
- MMS level after water spiking ([9]; MMS 1.5 mole %, water 6 and 12 mole %, heated sealed vessel, 45 hours): virtually unchanged
- hydrolysis rate constant k−1 ([9]; from K (k1/k−1) assigned 999:1, conservative): 6.4e-08 M⁻¹ s⁻¹

Structure (SMILES): N#C/C=C/C#N [fumaronitrile]
- side effects and toxicity [10]: high toxicity

Structure (SMILES): O=C(O)/C(O)=C(\O)C(=O)O [dihydroxy fumaric acid]
- side effects and toxicity [10]: high toxicity

Structure (SMILES): NC(=O)/C=C/C(N)=O [fumaramide]
- side effects and toxicity [10]: high toxicity
